The values below come from patent publication US12291537B2, “Compounds, compositions and methods” (priority 2022, dated 2025).

Holding throughout (type): cell-based
One series relates to A549, a NSCLC cell line. Briefly: Cytotoxicity testing of compounds (cell titer-Glo), second round. The settings on record: A549, second round (Table 2). Here is the method: (§1) HT-29 (colorectal cancer) and MDA-MB-468 (TNBC) cells were harvested and seeded with 3000 cell per well into 96-well cell culture plates respectively. They were then incubated at 37° C., 5% CO2 for overnight. Each compound was diluted 3-fold from 500 nM, and added to each well respectively. After 5 days, 30 μL cell titer-Glo Luminescent buffer was added to each well and the plate was incubated for 20 min at room temperature. Luminescence signal was detected by the Envison microplatereader.
(§2) In a second round of testing, C-2a and C-2b, along with 6 other compounds (C-1a, C-1b, C-3a, C-3b, C-5a, and C-4a) were tested with the same cell lines plus A549, a NSCLC cell line.

Test in series [1]: as above
The following applies: human. Here is the method: as §1, §2

Series [2] deals with HT-29 (colorectal cancer) cells. Nature of the series: Cytotoxicity testing of compounds (cell titer-Glo). The procedure:
(§3) They were then incubated at 37° C., 5% CO2 for overnight. […] After 5 days, 30 μL cell titer-Glo Luminescent buffer was added to each well and the plate was incubated for 20 min at room temperature. Luminescence signal was detected by the Envison microplatereader.

For the next series, the system named is MDA-MB-468 (TNBC) cells. Nature of the series: Cytotoxicity testing of compounds (cell titer-Glo). The procedure:
as §3

Series [3] deals with HT-29, MDA-MB-468 and A549 cells. Nature of the series: Cytotoxicity testing of compounds, text statements over the cell lines. The following applies: first round; HT-29 and MDA-MB-468. Here is the method:
as §1, §2

The nature of series [4]: Cytotoxicity testing of compounds (cell titer-Glo). The following applies: human, Min cell viability. Here is the method:
as §3

The mark [5] stands for this setting: Homo sapiens, HT-29, HT29, second round (Table 2).
Setting [6] is: Homo sapiens, second round (Table 2).
Where [7] appears, read: Homo sapiens, HT-29, 120 h, HT29, first round (Table 1), 5 days.
Where [8] appears, read: Homo sapiens, 120 h, first round (Table 1), 5 days.
The mark [9] stands for this setting: HT29, first round (Table 1), 5 days.

Molecules are shown by their SMILES. Square brackets hold non-standard residues; d marks the D form. Peptide text beside a SMILES is read from it. * marks the point of attachment. Dolaproine = CO[C@@H]([C@@H]1CCCN1)[C@@H](C)C(=O)O; Dil = CC[C@H](C)[C@H](NC)[C@@H](CC(=O)O)OC; X1 = C[C@@H](N*)[C@@H](O)c1ccccc1; NMeV = CN[C@H](C(=O)O)C(C)C

`CC[C@@]1(O)C(=O)OCc2c1cc1n(c2=O)Cc2c-1nc1cc(F)c(C)c3c1c2CC(N)C3` (mixture of isomers) [Compound C-5a]: the IC50 was found to be 22 nM in the series on A549, a NSCLC cell line (Homo sapiens); 26.6 nM in series [2] (setting [5]); 2.4 nM in the series with MDA-MB-468 (TNBC) cells (setting [6]). Also, the viability at 5 days in series [1] turned out to be 19.4%.
In the same order, the values of `CC[C@@]1(O)C(=O)OCc2c1cc1n(c2=O)Cc2c-1nc1cc(F)c(C)c3c1c2CC[C@@H]3N` [Compound C-1a] are 16.6 nM, 21.1 nM, 3.6 nM and 20.3%.
In the same order, the values of `CC[C@@]1(O)C(=O)OCc2c1cc1n(c2=O)Cc2c-1nc1cc(F)c(C)c3c1c2CC[C@H]3N` [Compound C-1b] are 13.7 nM, 18.5 nM, 3.1 nM and 14.5%.
With `CCc1c(F)cc2nc3c(c4c2c1CC[C@H]4N)Cn1c-3cc2c(c1=O)COC(=O)[C@]2(O)CC` [Compound C-2a], the IC50 with A549, a NSCLC cell line (Homo sapiens) worked out at 18.9 nM; in series [2] (setting [7]), 5.7 nM; in series [2] (setting [5]) it was 40.1 nM; with MDA-MB-468 (TNBC) cells (setting [8]), 1.6 nM; with MDA-MB-468 (TNBC) cells (setting [6]) it was 5.6 nM. The viability at 5 days is 19.7% in series [1] and 4.6% in series [4]. Moreover, the “inhibition of cells proliferation” value in series [3] is reported as “inhibited cells proliferation in a concentration-dependent manner”. In series [2] (human, 5 days), this compound returned a Min cell viability of 4.8.
With `CCc1c(F)cc2nc3c(c4c2c1CC[C@@H]4N)Cn1c-3cc2c(c1=O)COC(=O)[C@]2(O)CC` [Compound C-2b], the IC50 with A549, a NSCLC cell line (Homo sapiens) is 24.2 nM; in series [2] (setting [7]), 5.6 nM; in series [2] (setting [5]), approximately 52.7 nM; in the series with MDA-MB-468 (TNBC) cells (setting [8]) it was 1 nM; with MDA-MB-468 (TNBC) cells (setting [6]), 5.2 nM. Moreover, the viability at 5 days in series [1] worked out at 23.6%; in series [4], 1.9%. Moreover, in series [3], the “inhibition of cells proliferation” value is recorded as “inhibited cells proliferation in a concentration-dependent manner”. This compound returned a Min cell viability in series [2] (human, 5 days) of 3.7.
As to `CC[C@@]1(O)C(=O)OCc2c1cc1n(c2=O)Cc2c-1nc1cc(F)c(C(C)C)c3c1c2[C@H](N)CC3` [Compound C-3a], the IC50 in the series with A549, a NSCLC cell line (Homo sapiens) was 36.6 nM; in series [2] (setting [5]), 76.6 nM; with MDA-MB-468 (TNBC) cells (setting [6]) it was 8.8 nM. Also, the viability at 5 days in series [1] was found to be 23.8%.
For `CC[C@@]1(O)C(=O)OCc2c1cc1n(c2=O)Cc2c-1nc1cc(F)c(C(C)C)c3c1c2[C@@H](N)CC3` [Compound C-3b], the IC50 stood at 114 nM with A549, a NSCLC cell line (Homo sapiens) and 17.6 nM in the series with MDA-MB-468 (TNBC) cells (setting [6]). In series [1], this compound displayed a viability at 5 days of 30.6%.
`CC[C@@]1(O)C(=O)OCc2c1cc1n(c2=O)Cc2c-1nc1cc(F)c(C)c3c1c2[C@H](Nc1cccc(CN)c1)CC3` [Compound C-4a]: the viability at 5 days in series [1] is 83%. Moreover, in the series with MDA-MB-468 (TNBC) cells (setting [6]), half-maximal inhibition (IC50) required 115 nM.
Turning to `CC[C@@]1(O)C(=O)OCc2c1cc1n(c2=O)Cc2c-1nc1cc(F)c(C)c3c1c2[C@@H](NC(=O)CO)CC3` [DXD, reference compound], the IC50 was determined as 126 nM with A549, a NSCLC cell line; 25.2 nM in series [2] (setting [9]); 105 nM in series [2] (HT29, second round (Table 2)); 3.2 nM with MDA-MB-468 (TNBC) cells (first round (Table 1), 5 days); 4.2 nM in the series on MDA-MB-468 (TNBC) cells (second round (Table 2)). For the same compound, the Min cell viability in the series with A549, a NSCLC cell line is 28.4; in series [2] (setting [9]), 4.0; in series [2] (HT29, second round (Table 2)), 11.4; in the series on MDA-MB-468 (TNBC) cells (first round (Table 1), 5 days) it was 1.2; with MDA-MB-468 (TNBC) cells (second round (Table 2)), 4.1. Besides, in series [3], the “inhibition of cells proliferation” value was “inhibited cells proliferation in a concentration-dependent manner”.
Regarding `CC[C@H](C)[C@@H]([C@@H](CC(=O)N1CCC[C@H]1[C@H](OC)[C@@H](C)C(=O)N[C@H](C)[C@@H](O)c1ccccc1)OC)N(C)C(=O)[C@@H](NC(=O)[C@@H](NC)C(C)C)C(C)C` [MMAE, reference compound] (H-[NMeV]V[Dil][Dolaproine]-X1), the IC50 is 2 nM in the series on A549, a NSCLC cell line; approximately 0.5 nM in series [2] (setting [9]); 1.1 nM in series [2] (HT29, second round (Table 2)); 0.1 nM in the series with MDA-MB-468 (TNBC) cells (first round (Table 1), 5 days); 0.3 nM with MDA-MB-468 (TNBC) cells (second round (Table 2)). For the same compound, the “inhibition of cells proliferation” value in series [3] is “inhibited cells proliferation in a concentration-dependent manner”. Also, the Min cell viability is listed as 21.3 in series [2] (setting [9]); 35.5 in series [2] (HT29, second round (Table 2)); 4.6 with MDA-MB-468 (TNBC) cells (first round (Table 1), 5 days); 6.3 with MDA-MB-468 (TNBC) cells (second round (Table 2)).
